Data reported in patent US11655216B2 (priority 2016, dated 2023).
Read-outs that look alike come from different tables or passages of the source.

Legend:
[1] = biological target: T1, glutathione-S-transferase (GST) tagged LXRbeta LBD (ligand binding domain) (Homo sapiens, UniProt P55055); assay: LanthaScreen TR-FRET Liver X Receptor Coactivator Assay, LXR beta; type: biochemical; details: for EC50: LXR beta IP, potency (Inflection Point), compound-induced co-activator recruitment, TR-FRET; for Emax: read-out: LXR beta actiivty at max dose, efficacy (% Emax) in relation to reference dual agonist T0901317
T1 construct: purchased Invitrogen pv4658
T1 sequence (P55055 222-460 limits assumed): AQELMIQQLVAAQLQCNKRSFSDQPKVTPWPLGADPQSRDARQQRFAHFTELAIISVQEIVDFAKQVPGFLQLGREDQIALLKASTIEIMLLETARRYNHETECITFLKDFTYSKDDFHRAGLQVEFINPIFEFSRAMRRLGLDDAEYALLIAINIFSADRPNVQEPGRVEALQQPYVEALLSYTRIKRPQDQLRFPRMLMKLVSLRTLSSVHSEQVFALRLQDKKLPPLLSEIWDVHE
How it was run: (§1)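 LXR alpha- or beta-LBD was added to test compounds, then a mix of fluorescein-labelled coactivator peptide and terbium anti-GST antibody. After room-temperature incubation, TR-FRET was read on a filter-based reader.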

[2] = biological target: T2, glutathione-S-transferase (GST) tagged LXRalpha LBD (ligand binding domain) (Homo sapiens, UniProt Q13133); assay: biochemical
T2 construct: purchased Invitrogen pv4655
T2 sequence (Q13133 209-447 limits assumed): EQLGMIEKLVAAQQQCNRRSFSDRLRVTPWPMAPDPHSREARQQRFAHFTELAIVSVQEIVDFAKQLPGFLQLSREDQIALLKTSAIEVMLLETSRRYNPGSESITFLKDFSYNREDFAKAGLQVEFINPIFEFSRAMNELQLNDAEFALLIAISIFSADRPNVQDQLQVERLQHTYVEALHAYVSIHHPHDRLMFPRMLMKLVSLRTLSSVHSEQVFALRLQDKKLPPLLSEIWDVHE
How it was run: as §1

[3] = LXR alpha IP, potency (Inflection Point), compound-induced co-activator recruitment, TR-FRET
[4] = read-out: LXR alpha actiivty at max dose, efficacy (% Emax) in relation to reference dual agonist T0901317
[5] = read-out: LXR alpha actiivty at max dose
[6] = potency (Inflection Point), compound-induced co-activator recruitment, TR-FRET
[7] = efficacy (% Emax) in relation to reference dual agonist T0901317
[8] = efficacy (% Emax) in relation to reference dual agonist T0901317, read-out: LXR alpha actiivty at max dose

SMILES | EC50 [1] | Emax [1] | EC50 [2, 3] | Emax [2, 4] | LXR alpha IP [2, 6] | also measured
CN(C)C(=O)c1ccc(OCC(C)(C)CCC2CCN(C(=O)C(O)(c3ccccc3)C(F)(F)F)CC2)cc1Cl (single isomer, unassigned) [Example 29-1, (R or S)-2-chloro-4-(2,2-dimethyl-4-(1-(3,3,3-trifluoro-2-hydroxy-2-phenylpropanoyl)piperidin-4-yl)butoxy)-N,N-dimethylbenzamide] | 173 nM | 48% | 911 nM | 27% | – | –
CC(C)C(O)(C(=O)N1CCC(C2CC2COc2ccc(C(=O)N(C)C)c(Cl)c2)CC1)C(F)(F)F (single isomer, unassigned) [Example 32-1, 2-chloro-4-(((1R,2S or 1S,2R)-2-(1-((S or R)-2-hydroxy-3-methyl-2-(trifluoromethyl)butanoyl)piperidin-4-yl)cyclopropyl)methoxy)-N,N-dimethylbenzamide] | 319 nM | 82% | – | – | No IP | LXR alpha actiivty at max dose [2, 7]: 0%
CC(C)C(O)(C(=O)N1CCC(C2CC2COc2ccc(C(=O)N(C)C)c(Cl)c2)CC1)C(F)(F)F (single isomer, unassigned) [Example 32-2, 2-chloro-4-(((1R,2S or 1S,2R)-2-(1-((R or S)-2-hydroxy-3-methyl-2-(trifluoromethyl)butanoyl)piperidin-4-yl)cyclopropyl)methoxy)-N,N-dimethylbenzamide] | 206 nM | – | – | – | No IP | LXR beta actiivty at max dose [1, 7]: 73%; LXR alpha actiivty at max dose [2, 7]: 8%
CN(C)C(=O)c1ccc(OC[C@@H]2C[C@H]2C2CCN(C(=O)[C@](O)(c3ccccc3)C(F)(F)C(F)(F)F)CC2)cc1Cl (single isomer, unassigned) [Example 32-3, 2-chloro-N,N-dimethyl-4-(((1R,2S or 1S,2R)-2-(1-((R or S)-3,3,4,4,4-pentafluoro-2-hydroxy-2-phenylbutanoyl)piperidin-4-yl)cyclopropyl)methoxy) benzamide] | 105 nM | 125% | 1380 nM | 17% | – | –
CN(C)C(=O)c1ccc(OC[C@@H]2C[C@H]2C2CCN(C(=O)C(C)(C)c3ccccc3)CC2)cc1Cl (single isomer, unassigned) [Example 32-4, 2-chloro-N,N-dimethyl-4-(((1R,2S or 1S,2R)-2-(1-(2-methyl-2-phenylpropanoyl)piperidin-4-yl)cyclopropyl)methoxy) benzamide] | 163 nM | 60% | – | 0% | No IP | –
CNC(=O)c1ccc(OC[C@H]2C[C@@H]2C2CCN(C(=O)[C@](O)(c3ccccc3)C(F)(F)C(F)(F)F)CC2)cc1Cl (single isomer, unassigned) [Example 32-5, 2-chloro-N-methyl-4-(((1S,2R or 1R,2S)-2-(1-((R or S)-3,3,4,4,4-pentafluoro-2-hydroxy-2-phenylbutanoyl)piperidin-4-yl)cyclopropyl)methoxy) benzamide] | 136 nM | 149% | 1540 nM | 33% | – | –
CN(C)C(=O)c1ccc(OCCC2CC3(CCN(C(=O)C(O)(c4ccccc4)C(F)(F)F)CC3)C2)cc1Cl (single isomer, unassigned) [Example 34-1, 2-chloro-N,N-dimethyl-4-(2-(7-((R or S)-3,3,3-trifluoro-2-hydroxy-2-phenylpropanoyl)-7-azaspiro[3.5]nonan-2-yl)ethoxy)benzamide] | 16 nM | 113% | 551 nM | 46% | – | –
CN(C)C(=O)c1ccc(O[C@H]2C[C@@H](CC3CCN(C(=O)[C@](O)(c4ccccc4)C(F)(F)F)CC3)C2)cc1Cl (single isomer, unassigned) [Example 37-1, 2-chloro-N,N-dimethyl-4-((1R,3s)-3-((1-((R or S)-3,3,3-trifluoro-2-hydroxy-2-phenylpropanoyl)piperidin-4-yl)methyl)cyclobutoxy)benzamide] | 10 nM | 131% | – | – | – | EC50 ([2]; LXR alpha IP): 381 nM; Emax [2, 5]: 42%
CN(C)C(=O)c1ccc(O[C@H]2C[C@@H](CC3CCN(C(=O)[C@](O)(c4cccc(OC5CC5)c4)C(F)(F)F)CC3)C2)cc1Cl (single isomer, unassigned) [Example 37-2, 2-chloro-4-((1R,3s)-3-((1-((R or S)-2-(3-cyclopropoxyphenyl)-3,3,3-trifluoro-2-hydroxypropanoyl)piperidin-4-yl)methyl)cyclobutoxy)-N,N-dimethylbenzamide] | 40 nM | 109% | – | 2% | No IP | –
CCOc1cccc([C@@](O)(C(=O)N2CCC(C[C@H]3C[C@@H](Oc4ccc(C(=O)N(C)C)c(Cl)c4)C3)CC2)C(F)(F)F)c1 (single isomer, unassigned) [Example 37-3, 2-chloro-4-((1R,3s)-3-((1-((R or S)-2-(3-ethoxyphenyl)-3,3,3-trifluoro-2-hydroxypropanoyl)piperidin-4-yl)methyl)cyclobutoxy)-N,N-dimethylbenzamide] | 17 nM | 124% | – | 9% | No IP | –

Continued by falling EC50 [1], values first:

EC50 [1] | Emax [1] | EC50 [2, 3] | Emax [2, 4] | LXR alpha IP [2, 6] | SMILES | also measured
99 nM | 84% | – | – | – | COc1cccc(C(O)(C(=O)N2CCC(CC(C)CC(C)Oc3ccc(C(=O)N(C)C)c(Cl)c3)CC2)C(F)(F)F)c1 (single isomer, unassigned) [Example 30-1, 2-chloro-N,N-dimethyl-4-(4-methyl-5-(1-((R or S)-3,3,3-trifluoro-2-hydroxy-2-(3-methoxyphenyl)propanoyl)piperidin-4-yl)pentan-2-yloxy)benzamide] | LXR alpha IP [2]: No IP; Emax [2, 5]: 8%
69 nM | 61% | – | – | – | CN(C)C(=O)c1ccc(OCCCC2CC3(CCN(C(=O)C(O)(c4ccccc4)C(F)(F)F)CC3)C2)cc1Cl (single isomer, unassigned) [Example 35-1, 2-chloro-N,N-dimethyl-4-(3-(7-((R or S)-3,3,3-trifluoro-2-hydroxy-2-phenylpropanoyl)-7-azaspiro[3.5]nonan-2-yl)propoxy)benzamide] | Emax [2, 8]: 27%; EC50 ([2]; potency (Inflection Point), compound-induced co-activator recruitment, TR-FRET, read-out: LXR alpha IP): 546 nM
66 nM | 52% | – | – | No IP | COc1cccc(C(O)(C(=O)N2CCC3(CCC3CCCOc3ccc(C(=O)N(C)C)c(Cl)c3)CC2)C(F)(F)F)c1 (single isomer, unassigned) [Example 36-1, 2-chloro-N,N-dimethyl-4-(3-(7-((R or S)-3,3,3-trifluoro-2-hydroxy-2-(3-methoxyphenyl)propanoyl)-7-azaspiro[3.5]nonan-1-yl)propoxy)benzamide] | Emax [2, 8]: 3%
42 nM | 75% | 631 nM | 33% | – | CN(C)C(=O)c1ccc(OC[C@H]2C[C@@H]2C2CCN(C(=O)C(C)(C)c3ccccc3)CC2)cc1Cl (single isomer, unassigned) [Example 32-6, 2-chloro-N,N-dimethyl-4-(((1S,2R or 1R,2S)-2-(1-(2-methyl-2-phenylpropanoyl)piperidin-4-yl)cyclopropyl)methoxy) benzamide] | –
25 nM | 56% | 284 nM | 27% | – | CC(COc1ccc(C(=O)N(C)C)c(Cl)c1)CC(C)C1CCN(C(=O)C(O)(c2ccccc2)C(F)(F)F)CC1 (single isomer, unassigned) [Example 31-1, 2-chloro-N,N-dimethyl-4-(2-methyl-4-(1-((R or S)-3,3,3-trifluoro-2-hydroxy-2-phenylpropanoyl)piperidin-4-yl)pentyloxy)benzamide] | –
19 nM | 38% | – | 3% | No IP | COc1cccc(C(O)(C(=O)N2CCC(C(C)CC(C)COc3ccc(C(=O)N(C)C)c(Cl)c3)CC2)C(F)(F)F)c1 (single isomer, unassigned) [Example 31-2, 2-chloro-N,N-dimethyl-4-(2-methyl-4-(1-((R or S)-3,3,3-trifluoro-2-hydroxy-2-(3-methoxyphenyl)propanoyl)piperidin-4-yl)pentyloxy)benzamide] | –
9 nM | 69% | 329 nM | 42% | – | CN(C)C(=O)c1ccc(OCC2CC3(CCN(C(=O)C(O)(c4ccccc4)C(F)(F)F)CC3)C2)cc1Cl (single isomer, unassigned) [Example 33-1, 2-chloro-N,N-dimethyl-4-((7-((R or S)-3,3,3-trifluoro-2-hydroxy-2-phenylpropanoyl)-7-azaspiro[3.5]nonan-2-yl)methoxy)benzamide] | –
